Laboratory results as given in ChEMBL document CHEMBL1135303, “Design and synthesis of aminophenol-based factor Xa inhibitors” (Bioorg Med Chem Lett, 2002).

Assays:
[1] = biological target: Coagulation factor X (Homo sapiens, UniProt P00742); assay: Competitive inhibition of coagulation factor Xa
[2] = biological target: T1, Prothrombin (Homo sapiens, UniProt P00734); assay: Competitive inhibition of coagulation factor IIa
[3] = biological target: Serine protease 1 (Homo sapiens) (UniProt P07477); assay: The selectivity ratio for Trypsin and Coagulation factor Xa was determined
[4] = biological target: T1, Prothrombin; assay: Concentration required for twofold increase in thrombin clotting time in human plasma; type: functional, cell-free
[5] = biological target: T1, Prothrombin; assay: Concentration required to double the prothrombin based clotting time in human plasma; type: functional, cell-free
[6] = biological target: T2, Serine protease 1 (Bos taurus, UniProt P00760); assay: Competitive inhibition of trypsin
T2 sequence (P00760 whole entry): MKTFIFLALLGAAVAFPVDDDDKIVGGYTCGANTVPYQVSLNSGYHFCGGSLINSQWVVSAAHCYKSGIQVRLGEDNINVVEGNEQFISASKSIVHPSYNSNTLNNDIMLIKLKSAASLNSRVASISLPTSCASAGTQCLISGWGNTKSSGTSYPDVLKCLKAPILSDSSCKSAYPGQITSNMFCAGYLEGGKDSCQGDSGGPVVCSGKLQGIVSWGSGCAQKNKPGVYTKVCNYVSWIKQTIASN

SMILES	Ki [1]	Ki [2]	Ratio [3]	Concentration [4]	Concentration [5]	Ki [6]
CCOC(=O)CCC(=O)N(C/C=C/c1cc(C(=N)N)ccc1O)c1ccc(OC2CCN(C(C)=N)CC2)c(C(F)(F)F)c1	0.07 nM	2280 nM	3300	265 µM	0.8 µM	230 nM
CC(=N)N1CCC(Oc2ccc(N(C/C=C/c3cccc(C(=N)N)c3)C(=O)CCC(=O)O)cc2C(F)(F)F)CC1	0.28 nM	5000 nM	–	540 µM	0.75 µM	110 nM
CC(=N)N1CCC(Oc2ccc3c(nc(C)n3Cc3ccc4ccc(C(=N)N)cc4c3)c2[N+](=O)[O-])CC1	0.3 nM	5000 nM	–	–	–	3 nM
CC(=O)N1CCC(Oc2ccc(N(C/C=C/c3cc(C(=N)N)ccc3O)C(=O)CCC(=O)O)cc2C(F)(F)F)CC1	3 nM	> 5500 nM	–	173 µM	3 µM	891 nM
CC(=N)N1CCC(Oc2ccc(NCc3ccc4ccc(C(=N)N)cc4c3)cc2[N+](=O)[O-])CC1	0.08 nM	1960 nM	–	–	–	7 nM
CC(=N)N1CCC(Oc2ccc(NC/C=C/c3cccc(C(=N)N)c3)cc2)CC1	7.5 nM	5000 nM	–	–	–	80 nM
CC(=N)N1CCC(Oc2ccc(NCc3cccc(-c4cccc(C(=N)N)c4)c3)cc2[N+](=O)[O-])CC1	0.17 nM	400 nM	–	–	–	42 nM
CCOC(=O)c1cc(NC/C=C/c2cccc(C(=N)N)c2)ccc1OC1CCN(C(C)=N)CC1	6.8 nM	480 nM	–	15 µM	2.6 µM	40 nM
CC(=N)N1CCC(Oc2ccc(N(C/C=C/c3cc(C(=N)N)ccc3O)C(=O)CCC(=O)O)cc2C(F)(F)F)CC1	0.1 nM	5140 nM	2800	174 µM	0.54 µM	280 nM
CC(=O)N1CCC(Oc2ccc(NC/C=C/c3cc(C(=N)N)ccc3O)cc2C(F)(F)F)CC1	18.5 nM	480 nM	–	151 µM	21 µM	830 nM
N=C(N)c1ccc(O)c(/C=C/CN(C(=O)CCC(=O)O)c2ccc(OC3CCN(CC(=O)O)CC3)c(C(F)(F)F)c2)c1	0.34 nM	> 5000 nM	–	–	–	870 nM
CN1CCC(Oc2ccc(N(C/C=C/c3cc(C(=N)N)ccc3O)C(=O)CCC(=O)O)cc2C(F)(F)F)CC1	0.28 nM	> 5000 nM	–	–	–	765 nM
N=C(N)c1ccc(O)c(/C=C/CNc2ccc(OC3CCN(C(N)=O)CC3)c(C(F)(F)F)c2)c1	7.3 nM	250 nM	–	–	–	520 nM

Further lines, results first:

Ki [1]	Ki [2]	Ratio [3]	Concentration [4]	Concentration [5]	Ki [6]	SMILES
0.56 nM	3260 nM	–	200 µM	0.52 µM	10 nM	CC(=N)N1CCC(Oc2ccc(N(C/C=C/c3cccc(C(=N)N)c3)C(=O)c3ccc(C(=O)O)c(C(=O)O)c3)cc2C(F)(F)F)CC1
0.27 nM	2900 nM	–	–	–	27 nM	CC(=N)N1CCC(Oc2ccc(NC/C=C/c3cccc(C(=N)N)c3)cc2[N+](=O)[O-])CC1
0.55 nM	1000 nM	140	32 µM	0.87 µM	76 nM	CCOC(=O)CCC(=O)N(C/C=C/c1cccc(C(=N)N)c1)c1ccc(OC2CCN(C(C)=N)CC2)c(C(F)(F)F)c1
0.88 nM	2140 nM	–	220 µM	0.8 µM	50 nM	CC(=N)N1CCC(Oc2ccc(NC/C=C/c3cccc(C(=N)N)c3)cc2C(F)(F)F)CC1
0.1 nM	1100 nM	2000	210 µM	1.05 µM	200 nM	CC(=N)N1CCC(Oc2ccc(NC/C=C/c3cc(C(=N)N)ccc3O)cc2C(F)(F)F)CC1
4.1 nM	4700 nM	–	240 µM	0.73 µM	70 nM	CC(=N)N1CCC(Oc2ccc(NC/C=C/c3cccc(C(=N)N)c3)cc2F)CC1
0.07 nM	1550 nM	–	–	–	5 nM	CC(=N)N1CCC(Oc2ccc(NC/C(C)=C/c3cccc(C(=N)N)c3)cc2[N+](=O)[O-])CC1
0.58 nM	1820 nM	–	156 µM	0.98 µM	630 nM	CN1CCC(Oc2ccc(NC/C=C/c3cc(C(=N)N)ccc3O)cc2C(F)(F)F)CC1
44 nM	–	–	–	–	1250 nM	CS(=O)(=O)N1CCC(Oc2ccc(NC/C=C/c3cc(C(=N)N)ccc3O)cc2C(F)(F)F)CC1
